The text below walks through data of a melting point compilation (Tetko et al.; mined from patent text by program, amines drawn as free bases though some values may be those of a salt).

`CC(C)(CSc1ccc(Cl)cc1)C(O)Cn1ccnc1` (centres undefined) returned a melting point of 109 to 110 °C.

Consider `O=C(NC1CCCCCC1)c1cccc(C(=O)NC2CCCCCC2)c1`, for which the melting point lay in the range of 285 to 286 °C.

Consider `Cc1c(CO)ncn1C`, for which the melting point was in the range of 161 to 163 °C.

For `CC(C)S(=O)(=O)C1=CC=CN(Cl)C1`, the melting point was in the range of 82 to 84 °C.

`FC(F)(F)Oc1ccc(-c2coc3ccc(-c4nnc(S)o4)cc23)cc1` displayed a melting point of 197 to 198 °C.

For `CCOC(=O)c1ccc(Br)c(OC(F)F)c1Br`, the melting point is 45 to 47 °C.

`CSc1ccc(C(=O)CBr)c(F)c1` came in with a melting point of 55 to 59 °C.

Regarding `CC(C)(C)OC(=O)c1ccc([N+](=O)[O-])c(OCCOc2cc(C(=O)OC(C)(C)C)ccc2[N+](=O)[O-])c1`, the melting point lay within 155 to 157 °C.

As to `O=C1CCC(N2Cc3c(OCc4ccc(CN5CCC(Oc6ccccc6)CC5)cc4)cccc3C2=O)C(=O)N1` (centres undefined), the melting point fell in the range of 180 to 182 °C.

`CCOc1ccc2c(c1)C(C)(c1ccccc1Cl)C(=O)N2S(=O)(=O)c1ccc(NC(=O)N(CC)CC)cc1OC` (centres undefined) gave a melting point of 137 °C.

With `O=C(O)C(=O)c1ccc(OCc2ccc3ccccc3n2)cc1`, the melting point is 225 to 228 °C.

In turn, `CC1(C)CC(N)c2cc(OCc3ccccc3)ccc2O1` (centres undefined) registered a melting point of 86 to 88 °C.

As for `CCC(=O)OC(C)c1ccc(-c2ccc(O)cc2)cc1` (single isomer, unassigned; (+)), the melting point lay within 133 to 135 °C.

`CC1(C(=O)Nc2ccc(Oc3ccc(Cl)cc3)c(C(F)(F)F)c2)CC1` registered a melting point of 115 to 117 °C.

For `ClCc1coc(C2=Cc3ccccc3CC2)n1`, the melting point is 73 to 74 °C.

In turn, `CC(C)(C)OC(=O)n1[nH]c(=O)c2ccccc21` yielded a melting point of 145 °C.

For `NC(=O)C1=C(O)C(NC(=S)c2ccccc2)C2CC3Sc4c(Cl)ccc(O)c4C(=O)C3=C(O)C2(O)C1=O` (centres undefined), the melting point amounted to 222 °C.

With `COc1cc2c(cc1-c1cc(F)ccc1F)NC(=O)CC(c1cccc(C#N)c1)=N2`, the melting point stood at 251 °C.

For `Cc1ccc(S(=O)(=O)NN)cc1`, the melting point was determined as 110 °C.

Compound `CCNC(=O)Nc1nc2cc(-c3cccnc3)cc(N3CCC(O)C3)n2n1` (centres undefined) displayed a melting point of 296 to 298 °C.

`O=Cc1c2ccccc2c(C=O)c2c1ccc1ccccc12`: the melting point fell in the range of 197 to 198 °C.

`O=P(O)(O)C(c1cccc(C(F)(F)F)c1)c1cccc(C(F)(F)F)c1` registered a melting point of 191 to 193 °C.

The compound `CCOC(C)(C)C#Cc1ncn2c1CN(C)C(=O)c1cc(F)ccc1-2` returned a melting point of 136 to 138 °C.

Turning to `COc1ccc(-c2cnc(N)c(Sc3ccc(Cl)cc3)n2)cc1`, the melting point lay within 154 to 155 °C.

Consider `Cc1cccc(C(=O)Cc2ccnc(NC(=O)c3ccccc3)c2)c1`, for which the melting point lay within 67 to 69 °C.

Compound `COc1ccc2c(c1)C(CC(=O)O)=C(C)C2=Cc1ccc(SC)cc1` came in with a melting point of 195 to 196 °C.

As to `O=C(CCCN1CCC2(CC1)OC(=O)c1ccccc12)c1ccc(F)cc1`, the melting point was 183 to 184 °C.

Compound `CCOC(=O)c1c(CBr)nc2cc(OC)c(OC)cc2c1-c1ccc(OC)c(OC)c1` yielded a melting point of 135 to 136 °C.

The compound `COc1ccc(C)c(NC(=O)C(C)=Cc2ccccc2)c1` showed a melting point of 125 to 126 °C.

On to `COc1ccc2c(c1)[C@H]1Cc3c(cc(C)c(OC)c3C)[C@H]1N2` (relative stereo), for which the melting point lay within 149 to 150 °C.

Turning to `Cc1oc(COc2ccccc2/C=C/CO)nc1-c1ccccc1`, the melting point was in the range of 128 to 129 °C.

Compound `CC(=O)Nc1nc(CCCN2CCN(C(c3ccccc3)c3ccccc3)CC2)cs1` showed a melting point of 213 to 215 °C.

Regarding `CNC(=O)c1ccc(O[C@H]2CC[C@@H](NC(=O)Nc3ccc(OC(F)(F)F)cc3)CC2)cc1`, the melting point lay within 207 to 208 °C.

For `O=C(O)C(=O)c1ccc(OCCCCCCCCCCCCOc2ccccc2)cc1`, the melting point is 98 to 100 °C.

Regarding `NC1C(=O)N(CCCO)c2ccccc2N(c2ccccc2)C1=O` (centres undefined), the melting point fell in the range of 55 to 58 °C.

The compound `CC(C)n1c(=O)nc(-c2cccnc2)c2cc3c(cc21)OCO3` showed a melting point of 58 to 60 °C.

Consider `CN1CC(=O)N2CCC[C@H]2C1=O`, for which the melting point was 133 to 135 °C.

`Nc1ncc2c(n1)CCC(=O)C2` showed a melting point of 214 to 217 °C.

`CCOCC(=O)C1CCC2C3CCC4CC(O)CCC4(C)C3C(=O)CC12C` (centres undefined) yielded a melting point of 129 to 131 °C.

The compound `O=C(O)CCC1(NC(=O)c2ccc(Cl)c(Cl)c2)C(=O)N(CCCc2ccccc2)c2ccccc21` (centres undefined) gave a melting point of 242 to 243 °C.

`O=C(c1ccccc1)c1ccc(Nc2ncnc3ccc(-n4ccnc4)cc23)cc1Cl` displayed a melting point of 220 to 223 °C.

`O=C(Nc1cccc(F)c1)Nc1cnnc(Cl)c1` came in with a melting point of 293 to 296 °C.

On to `C=CCC(Oc1cccc(C)c1C)C1=NCCN1` (centres undefined), for which the melting point fell in the range of 72 to 74 °C.

`CSc1nnc(COc2cc(C(C)(C)C)c(O)c(C(C)(C)C)c2)s1` came in with a melting point of 128 to 130 °C.

`Nc1sc2c(c1C(=O)c1ccc(Cl)cc1)CCN(CCCc1ccccc1)C2`: the melting point lay in the range of 98 to 100 °C.

Compound `Cc1nn(-c2ccccn2)cc1COc1ccc(C=O)cc1` returned a melting point of 84 to 85 °C.

In the case of `O=C1OC2(CCN(CCC(O)c3ccccc3)CC2)c2ccccc21` (centres undefined), the melting point was in the range of 144 to 146 °C.

In the case of `Cc1cc(-c2cc(C(F)F)n3ncc(C(=O)Nc4cccc(S(N)(=O)=O)c4)c3n2)ccc1Cl`, the melting point amounted to 264 °C.

For the compound `N#Cc1cc(NC(=O)c2ccc3ccccc3c2)ccc1N1CCC(O)CC1`, the melting point lay within 183 to 185 °C.

Regarding `COCCOC(=O)NCC(C)(C)N`, the melting point lay in the range of 94 to 96 °C.

In turn, `Fc1ccc2c(N3CCN(Cc4ccccc4)CC3)n[nH]c2c1` returned a melting point of 162 °C.

`C=CCCn1cnc2c1c(=O)[nH]c(=O)n2C` came in with a melting point of 245 to 246 °C.

In turn, `Cc1ccc(C(=O)c2cccc3c2CCC3C(N)=O)cc1` (centres undefined) returned a melting point of 188 to 191 °C.

The compound `Cc1nnc2ccc(-c3cccc(Cl)c3)nn12` gave a melting point of 165 to 167 °C.

Compound `CC(=O)N[C@@H](CC(C)C)C(=O)N[C@@H](C(C)C)[C@@H](O)c1c(-c2ccccc2)c1=O` gave a melting point of 94 to 105 °C.

`CCCc1nc2c(N)nc(C)c(C)c2n1Cc1cc(-c2ccc(F)cc2)no1` had a melting point of 227 to 229 °C.

For the compound `CCCCn1nc(C(F)(F)CC)nc1Cc1ccc(-c2ccccc2-c2nnn[nH]2)nc1`, the melting point lay within 98 to 100 °C.

In turn, `Cc1nc(-c2ccc(OCC(C)(C)C)c(I)c2)sc1C(=O)O` had a melting point of 194 to 195 °C.

As to `COc1ccc2c(c1)CCC1=C2CCC(O)C1` (centres undefined), the melting point fell in the range of 90 to 92 °C.

As to `O=C1Cc2cc(OCc3ccc4ccccc4n3)ccc2N1c1ccccc1`, the melting point is 148 to 149 °C.

Take `O=c1ccc2c(-n3cccn3)nccc2[nH]1`: the melting point was > 300 °C.

Turning to `O=C(O)c1cccc(-c2cccc3nc(Cc4cccc(C(F)(F)F)c4)oc23)c1`, the melting point fell in the range of 175 to 176 °C.

In turn, `CN(NC(=O)c1ccccc1CO)C(=S)Nc1cccc(F)c1` displayed a melting point of 136 to 137 °C.

In turn, `CCc1noc(-c2cn(-c3cc(Cl)ccc3OCc3ccccc3)cn2)n1` registered a melting point of 100 to 102 °C.

As a reminder, the melting point is the temperature of the solid-liquid transition.
